According to patent publication US9096532B2, “Pyrazole inhibitors of COX-2 and sEH” (The Regents of the University of California, priority 2010, dated 2015):
Values belong to the molecule of their own block, whether it stands above or below them.

Columns and labels:
ovine COX-1 = target: T1, ovine COX-1 (Ovis aries, UniProt P05979); test: Cyclooxygenase inhibition assay (COX Fluorescent Inhibitor Screening Assay Kit), COX-1; type: biochemical; settings: read-out: COX-1 (% inhibition)
T1 construct: purchased Cayman Chemical 700100
T1 sequence (P05979 25-600): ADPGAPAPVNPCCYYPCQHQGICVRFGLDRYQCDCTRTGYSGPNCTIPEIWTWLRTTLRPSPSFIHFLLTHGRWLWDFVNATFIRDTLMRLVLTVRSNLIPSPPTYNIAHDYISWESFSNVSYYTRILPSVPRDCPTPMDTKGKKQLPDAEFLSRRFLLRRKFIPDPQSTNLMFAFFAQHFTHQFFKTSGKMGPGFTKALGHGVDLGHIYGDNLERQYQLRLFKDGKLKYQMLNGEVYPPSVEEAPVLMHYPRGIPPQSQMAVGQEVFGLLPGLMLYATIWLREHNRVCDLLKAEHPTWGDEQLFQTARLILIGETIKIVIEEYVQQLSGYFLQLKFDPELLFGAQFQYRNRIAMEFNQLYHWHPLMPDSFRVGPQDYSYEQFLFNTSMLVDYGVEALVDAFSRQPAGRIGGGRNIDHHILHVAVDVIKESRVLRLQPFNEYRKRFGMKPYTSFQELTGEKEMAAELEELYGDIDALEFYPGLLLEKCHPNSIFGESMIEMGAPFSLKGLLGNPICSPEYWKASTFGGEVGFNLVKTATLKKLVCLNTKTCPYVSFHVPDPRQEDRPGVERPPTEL
Method: (§1) Stock solutions of test compounds are dissolved in a minimum volume of DMSO. 10 μl of various concentrations of the test compound solutions, e.g., [I]final between 0.01 and 100 μM, are added to a series of supplied reaction buffer solutions (150 μl, 100 mM Tris-HCl, pH 8.0) with either COX-1 or COX-2 (10 μl) enzyme in the presence of Heme (10 μl) and a fluorometric substrate (10 μl). The reactions are initiated by quickly adding 10 μl of arachidonic acid solution and then incubating the system for two minutes at room temperature. […] The intensity of this fluorescence is proportional to the amount of resorufin, which is proportional to the amount of PGG2 present in the well during the incubation. Percent inhibition is calculated by comparison from the 100% initial activity sample value (no inhibitor).
as §1, with “compounds were” for “compounds are”, “μM, were” for “μM, are”, “reactions were” for “reactions are”, “then incubated” for “then incubating the system”, “inhibition was” for “inhibition is”

human sEH = target: T2, human sEH (Homo sapiens, UniProt P34913); test: sEH IC50 assay, fluorescent-based with CMNPC substrate; type: biochemical; settings: for IC50: kinetic fluorescent assay, means ± SD of three separate experiments
T2 sequence (P34913 1-555): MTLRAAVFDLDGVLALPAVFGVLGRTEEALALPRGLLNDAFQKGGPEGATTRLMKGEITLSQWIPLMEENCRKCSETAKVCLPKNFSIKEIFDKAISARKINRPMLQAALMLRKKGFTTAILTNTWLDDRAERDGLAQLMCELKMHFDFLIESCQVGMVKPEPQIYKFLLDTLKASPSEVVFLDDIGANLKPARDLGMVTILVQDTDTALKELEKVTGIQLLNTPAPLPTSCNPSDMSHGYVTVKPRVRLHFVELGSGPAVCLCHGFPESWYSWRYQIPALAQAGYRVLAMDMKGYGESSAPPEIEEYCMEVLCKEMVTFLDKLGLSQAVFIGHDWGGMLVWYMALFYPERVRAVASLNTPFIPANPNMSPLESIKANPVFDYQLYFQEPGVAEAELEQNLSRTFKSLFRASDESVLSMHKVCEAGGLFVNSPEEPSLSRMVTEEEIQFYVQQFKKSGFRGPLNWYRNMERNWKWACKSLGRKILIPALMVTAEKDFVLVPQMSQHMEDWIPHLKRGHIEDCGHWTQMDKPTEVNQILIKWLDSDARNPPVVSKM
Method: sEH inhibition IC50 values for the compounds presented herein can be assayed by a recombinant affinity assay using purified sEHs, from human, mouse or rat, in a fluorescent-based assay.
For the recombinant affinity assay, purified sEHs (human, mouse and rat) were used in a fluorescent-based assay to determine IC50 values. […] These IC50 values were calculated from at least three separate runs, each in triplicate, to obtain the statistics herein, e.g., standard deviation.

human recombinant COX-2 = target: T3, human recombinant COX-2 (Homo sapiens, UniProt P35354); test: Cyclooxygenase inhibition assay (COX Fluorescent Inhibitor Screening Assay Kit), COX-2; type: biochemical; settings: compared to compound 21b
T3 construct: purchased Cayman Chemical 700100
T3 sequence (P35354 18-604): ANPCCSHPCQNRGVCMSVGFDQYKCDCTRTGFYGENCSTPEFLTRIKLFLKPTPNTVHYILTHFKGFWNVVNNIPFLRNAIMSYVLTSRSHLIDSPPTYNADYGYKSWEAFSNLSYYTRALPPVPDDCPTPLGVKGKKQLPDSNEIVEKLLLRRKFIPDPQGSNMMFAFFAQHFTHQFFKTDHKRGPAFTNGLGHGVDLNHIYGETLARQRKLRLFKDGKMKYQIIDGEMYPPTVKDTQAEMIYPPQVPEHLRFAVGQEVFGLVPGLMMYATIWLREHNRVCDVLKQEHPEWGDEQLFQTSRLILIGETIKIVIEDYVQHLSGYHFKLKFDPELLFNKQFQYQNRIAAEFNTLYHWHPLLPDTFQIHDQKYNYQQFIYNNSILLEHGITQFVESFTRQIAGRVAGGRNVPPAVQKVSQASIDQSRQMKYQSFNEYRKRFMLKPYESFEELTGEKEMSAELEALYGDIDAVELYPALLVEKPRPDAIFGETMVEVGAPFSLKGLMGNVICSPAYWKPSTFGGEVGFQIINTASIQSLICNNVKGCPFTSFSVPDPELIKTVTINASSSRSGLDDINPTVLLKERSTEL
Method: as §1
as §1, with “compounds were” for “compounds are”, “μM, were” for “μM, are”, “reactions were” for “reactions are”, “then incubated” for “then incubating the system”, “inhibition was” for “inhibition is”

[1] = Pharmacokinetics in mice by oral cassette dosing; type: in vivo; settings: oral cassette dosing at 5 mg/kg, blood

SMILES: NS(=O)(=O)c1ccc(-n2nc(NC(=O)Nc3cccc(C(F)(F)F)c3)cc2-c2ccccc2)cc1 [Compound 7, 4-{5-Phenyl-3-[3-(3-trifluoromethyl-phenyl)-ureido]-pyrazol-1-yl}-benzenesulfonamide]
inhibition at 100 µM (ovine COX-1): 33.9%

SMILES: CS(=O)(=O)c1ccc(-n2nc(CNC(=O)NC34CC5CC(CC(C5)C3)C4)cc2-c2ccccc2)cc1 [Compound 11a, 1-Adamantan-1-yl-3-[1-(4-methanesulfonyl-phenyl)-5-phenyl-1H-pyrazol-3-ylmethyl]-urea]
inhibition at 100 µM (ovine COX-1): 12.7%

SMILES: CS(=O)(=O)c1ccc(-n2nc(CNC(=O)NC3CCCCCC3)cc2-c2ccccc2)cc1 [Compound 11b, 1-Cycloheptyl-3-[1-(4-methanesulfonyl-phenyl)-5-phenyl-1H-pyrazol-3-ylmethyl]-urea]
inhibition at 100 µM (ovine COX-1): 3.4%
Improvement of sEH inhibition (human sEH; compared to compound 11a): 10 fold

SMILES: CS(=O)(=O)c1ccc(-n2nc(CNC(=O)Nc3ccc(OC(F)(F)F)cc3)cc2-c2ccccc2)cc1 [Compound 11d, 1-[1-(4-Methanesulfonyl-phenyl)-5-phenyl-1H-pyrazol-3-ylmethyl]-3-(4-trifluoromethoxy-phenyl)-urea]
inhibition at 100 µM (ovine COX-1): 10.4%

SMILES: CS(=O)(=O)c1ccc(-n2nc(CNC(=O)Nc3ccc(C(F)(F)F)cc3)cc2-c2ccccc2)cc1 [Compound 11e, 1-[1-(4-Methanesulfonyl-phenyl)-5-phenyl-1H-pyrazol-3-ylmethyl]-3-(4-trifluoromethyl-phenyl)-urea]
inhibition at 100 µM (ovine COX-1): 10.7%

SMILES: CS(=O)(=O)c1ccc(-n2nc(CNC(=O)Nc3cccc(C(F)(F)F)c3)cc2-c2ccccc2)cc1 [Compound 11f, 1-[1-(4-Methanesulfonyl-phenyl)-5-phenyl-1H-pyrazol-3-ylmethyl]-3-(3-trifluoromethyl-phenyl)-urea]
inhibition at 100 µM (ovine COX-1): 7.8%

SMILES: NS(=O)(=O)c1ccc(-n2nc(CNC(=O)Nc3cccc(C(F)(F)F)c3)cc2-c2ccccc2)cc1 [Compound 11g, 4-{5-Phenyl-3-[3-(3-trifluoromethyl-phenyl)-ureidomethyl]-pyrazol-1-yl}-benzenesulfonamide]
inhibition at 100 µM (ovine COX-1): 16.9%

SMILES: CC(C)(C)c1cc(CNC(=O)Nc2cccc(C(F)(F)F)c2)nn1-c1ccc(S(C)(=O)=O)cc1 [Compound 11h, 1-[5-tert-Butyl-1-(4-methanesulfonyl-phenyl)-1H-pyrazol-3-ylmethyl]-3-(3-trifluoromethyl-phenyl)-urea]
inhibition at 100 µM (ovine COX-1): 2.4%

SMILES: NS(=O)(=O)c1ccc(-n2nc(CCNC(=O)Nc3cccc(C(F)(F)F)c3)cc2-c2ccccc2)cc1 [Compound 15, 4-(5-Phenyl-3-{2-[3-(3-trifluoromethyl-phenyl)-ureido]-ethyl}-pyrazol-1-yl)-benzenesulfonamide]
inhibition at 100 µM (ovine COX-1): 22%
Improvement of sEH inhibition (human sEH; compared to compound 11g): 3 fold

SMILES: CS(=O)(=O)c1ccc(-n2nc(CCCNC(=O)Nc3cccc(C(F)(F)F)c3)cc2-c2ccccc2)cc1 [Compound 21a, 1-{3-[1-(4-Methanesulfonyl-phenyl)-5-phenyl-1H-pyrazol-3-yl]-propyl}-3-(3-trifluoromethyl-phenyl)-urea]
inhibition at 100 µM (ovine COX-1): 6.4%

SMILES: Cc1ccc(-c2cc(CCCNC(=O)Nc3cccc(C(F)(F)F)c3)nn2-c2ccc(S(N)(=O)=O)cc2)cc1 [Compound 21c, 4-(5-p-Tolyl-3-{3-[3-(3-trifluoromethyl-phenyl)-ureido]-propyl}-pyrazol-1-yl)-benzenesulfonamide]
inhibition at 100 µM (ovine COX-1): 12.1%
Diminished COX-2 inhibition (human recombinant COX-2): 3 fold
Diminished sEH inhibition (human sEH; compared to compound 21b): 3 fold

inhibition at 100 µM (ovine COX-1): 6.2%
IC50 (human sEH): 1.55 ± 0.07 µM
SMILES: Cc1cccc(C)c1NC(=O)NCCCc1cc(-c2ccccc2)n(-c2ccc(S(N)(=O)=O)cc2)n1 [Compound 21d, 4-(3-{3-[3-(2,6-Dimethyl-phenyl)-ureido]-propyl}-5-phenyl-pyrazol-1-yl)-benzenesulfonamide]

SMILES: NS(=O)(=O)c1ccc(-n2nc(CCCNC(=O)Nc3ccccc3)cc2-c2ccccc2)cc1 [Compound 21e, 4-{5-Phenyl-3-[3-(3-phenyl-ureido)-propyl]-pyrazol-1-yl}-benzenesulfonamide]
inhibition at 100 µM (ovine COX-1): 15.8%
AUC [1]: 0.125 µM·h
Cmax [1]: 100 nM
Tmax [1]: 0.5 h
t1/2 [1]: 3.1 h

SMILES: NS(=O)(=O)c1ccc(-n2nc(CCCNC(=O)NC34CC5CC(CC(C5)C3)C4)cc2-c2ccccc2)cc1 [Compound 21f, 4-{3-[3-(3-Adamantan-1-yl-ureido)-propyl]-5-phenyl-pyrazol-1-yl}-benzenesulfonamide]
inhibition at 100 µM (ovine COX-1): 6.7%
AUC [1]: 0.022 µM·h
Cmax [1]: 20 nM
Tmax [1]: 0.5 h
t1/2 [1]: 1.7 h

SMILES: NS(=O)(=O)c1ccc(-n2nc(CCCNC(=O)NC3CCCCCC3)cc2-c2ccccc2)cc1 [Compound 21g, 4-{3-[3-(3-Cycloheptyl-ureido)-propyl]-5-phenyl-pyrazol-1-yl}-benzenesulfonamide]
inhibition at 100 µM (ovine COX-1): 10.2%
AUC [1]: 0.1 µM·h
Cmax [1]: 42 nM
Tmax [1]: 0.5 h
t1/2 [1]: 3.5 h

SMILES: NS(=O)(=O)c1ccc(-n2nc(CCCNC(=O)Nc3ccc(Cl)cc3)cc2-c2ccccc2)cc1 [Compound 21h, 4-(3-{3-[3-(4-Chloro-phenyl)-ureido]-propyl}-5-phenyl-pyrazol-1-yl)-benzenesulfonamide]
inhibition at 100 µM (ovine COX-1): 15.2%
AUC [1]: 0.375 µM·h
Cmax [1]: 190 nM
Tmax [1]: 0.8 h
t1/2 [1]: 2.4 h

IC50 (human sEH): > 10 µM
SMILES: COc1ccc2c(c1)c(CC(=O)O)c(C)n2C(=O)c1ccc(Cl)cc1 [Indomethacin, reference compound]

SMILES: CS(=O)(=O)c1ccc(C2=C(c3ccccc3)C(=O)OC2)cc1 [Rofecoxib, rofecoxib, reference compound]
inhibition at 100 µM (ovine COX-1): 16.5%
IC50 (human sEH): > 10 µM
